≈ marks a conversion by molar mass, not a printed value.
Legend:
Type in all cases: cell-based
[1] = system: Streptococcus pneumoniae ATCC6303; assay: MIC, microbroth dilution (NCCLS); settings: rifS strain, THY Broth with 1 mg/mL catalase, 5% CO2, 37° C., read-out: MIC
[2] = system: Staphylococcus aureus ATCC29213 rpoB^H418Y; assay: microbe, parasite or virus in culture; settings: Staphylococcus aureus, ATCC29213; rifR strain; Cation-Adjusted Mueller-Hinton Broth, 37° C.; read-out: MIC
[3] = system: Staphylococcus epidermidis ATCC12228; assay: MIC, microbroth dilution (NCCLS); settings: rifS strain, Cation-Adjusted Mueller-Hinton Broth, 37° C., read-out: MIC
[4] = system: Staphylococcus aureus MT1222 gyrA^A116E grlB^S80F; assay: microbe, parasite or virus in culture; settings: cipR strain, Cation-Adjusted Mueller-Hinton Broth, 37° C., read-out: MIC
[5] = system: Streptococcus pyogenes ATCC19615; assay: MIC, microbroth dilution (NCCLS); settings: rifS strain, THY Broth, 37° C., read-out: MIC
[6] = system: Haemophilus influenzae ATCC10211; assay: MIC, microbroth dilution (NCCLS); settings: rifS strain, BHI Broth with NAD and hematin, 37° C., read-out: MIC
[7] = system: Staphylococcus aureus ATCC29213; assay: MIC, microbroth dilution (NCCLS); settings: rifS strain, Cation-Adjusted Mueller-Hinton Broth, 37° C., read-out: MIC

Row | SMILES | MIC [1] [µg/mL] | MIC [2] [µg/mL] | MIC [3] [µg/mL] | MIC [4] [µg/mL] | MIC [5] [µg/mL] | MIC [6] [µg/mL] | MIC [7] [µg/mL]
1 | COc1c(N2CCN(/N=C/C3=C4NC(=O)/C(C)=C\C=C\[C@H](C)[C@H](O)[C@@H](C)[C@@H](O)[C@@H](C)[C@H](OC(C)=O)[C@H](C)[C@@H](OC)/C=C/O[C@@]5(C)Oc6c(C)c(O)c(c(c6C5=O)C3=O)C4=O)C(C)C2)c(F)cc2c(=O)c(C(=O)O)cn(C3CC3)c12 (mixture of isomers) [Example 12, (R/S)-3-[4-(3-Carboxy-1-cyclopropyl-6-fluoro-8-methoxy-4-oxo-1,4-dihydroquinolin-7-yl)-2-methylpiperazin-1-yl-aminomethylenyl]rifamycin S] | 0.008 to 0.06 (≈ 0.0073 to 0.0547 µM) | 0.06 to 16 (≈ 0.0547 to 14.6 µM) | 0.008 to 0.1 (≈ 0.0073 to 0.0912 µM) | 0.008 to 0.125 (≈ 0.0073 to 0.114 µM) | 0.008 to 0.03 (≈ 0.0073 to 0.0274 µM) | 0.125 to 4 (≈ 0.114 to 3.65 µM) | 0.008 to 1 (≈ 0.0073 to 0.912 µM)
2 | CO[C@H]1/C=C/O[C@@]2(C)Oc3c(C)c(O)c4c(O)c(c(/C=N/N(C)C5CCN(c6cc7c(cc6F)c(=O)c(C(=O)O)cn7C6CC6)C5)c(O)c4c3C2=O)NC(=O)/C(C)=C\C=C\[C@H](C)[C@H](O)[C@@H](C)[C@@H](O)[C@@H](C)[C@H](OC(C)=O)[C@@H]1C (mixture of isomers) [Example 15, (R/S)-3-[1-(3-Carboxy-1-cyclopropyl-6-fluoro-4-oxo-1,4-dihydroquinolin-7-yl)-pyrrolidin-3-yl-N′-methylhydrazinomethylenyl]rifamycin SV] | 0.008 to 0.06 (≈ 0.00749 to 0.0562 µM) | 0.06 to 16 (≈ 0.0562 to 15 µM) | 0.008 to 0.1 (≈ 0.00749 to 0.0936 µM) | 0.008 to 0.125 (≈ 0.00749 to 0.117 µM) | 0.008 to 0.03 (≈ 0.00749 to 0.0281 µM) | 0.125 to 4 (≈ 0.117 to 3.74 µM) | 0.008 to 1 (≈ 0.00749 to 0.936 µM)
3 | COc1c(N2CCC(C3(N(C)C4CCN(/N=C/c5c6c(O)c7c(O)c(C)c8c(c7c5O)C(=O)[C@@](C)(O/C=C/[C@H](OC)[C@@H](C)[C@@H](OC(C)=O)[C@H](C)[C@H](O)[C@H](C)[C@@H](O)[C@@H](C)/C=C/C=C(/C)C(=O)N6)O8)CC4)CC3)C2)c(F)cc2c(=O)c(C(=O)O)cn(C3CC3)c12 (mixture of isomers) [Example 16] | 0.008 to 0.06 (≈ 0.00655 to 0.0491 µM) | 0.06 to 16 (≈ 0.0491 to 13.1 µM) | 0.008 to 0.1 (≈ 0.00655 to 0.0819 µM) | 0.008 to 0.125 (≈ 0.00655 to 0.102 µM) | 0.008 to 0.03 (≈ 0.00655 to 0.0246 µM) | 0.125 to 4 (≈ 0.102 to 3.27 µM) | 0.008 to 1 (≈ 0.00655 to 0.819 µM)
4 | CO[C@H]1/C=C/O[C@@]2(C)Oc3c(C)c(O)c4c(O)c(c(/C=N/N5CCC(N(C)C6(C7CCN(c8c(F)cc9c(=O)c(C(=O)O)cn(C%10CC%10)c9c8Cl)C7)CC6)CC5)c(O)c4c3C2=O)NC(=O)/C(C)=C\C=C\[C@H](C)[C@H](O)[C@@H](C)[C@@H](O)[C@@H](C)[C@H](OC(C)=O)[C@@H]1C (mixture of isomers) [Example 17, (R/S)-3-{[4-({1-[1-(3-Carboxy-8-chloro-1-cyclopropyl-6-fluoro-4-oxo-1,4-dihydro-quinolin-7-yl)-pyrrolidin-3-yl]-cyclopropyl}-methyl-amino)-piperidin-1-ylimino]-methyl}-rifamycin SV] | 0.008 to 0.06 (≈ 0.00653 to 0.0489 µM) | 0.06 to 16 (≈ 0.0489 to 13.1 µM) | 0.008 to 0.1 (≈ 0.00653 to 0.0816 µM) | 0.008 to 0.125 (≈ 0.00653 to 0.102 µM) | 0.008 to 0.03 (≈ 0.00653 to 0.0245 µM) | 0.125 to 4 (≈ 0.102 to 3.26 µM) | 0.008 to 1 (≈ 0.00653 to 0.816 µM)
5 | COc1c(N2CCC(N/N=C/c3c4c(O)c5c(O)c(C)c6c(c5c3O)C(=O)[C@@](C)(O/C=C/[C@H](OC)[C@@H](C)[C@@H](OC(C)=O)[C@H](C)[C@H](O)[C@H](C)[C@@H](O)[C@@H](C)/C=C/C=C(/C)C(=O)N4)O6)C2)c(F)cc2c(=O)c(C(=O)O)cn(C3CC3)c12 (mixture of isomers) [Example 21, (R/S)-3-[1-(3-Carboxy-1-cyclopropyl-6-fluoro-8-methoxy-4-oxo-1,4-dihydroquinolin-7-yl)-pyrrolidinyl-3-hydrazino-methylenyl]-rifamycin SV] | 0.008 to 0.06 (≈ 0.00738 to 0.0553 µM) | 0.06 to 16 (≈ 0.0553 to 14.8 µM) | 0.008 to 0.1 (≈ 0.00738 to 0.0922 µM) | 0.008 to 0.125 (≈ 0.00738 to 0.115 µM) | 0.008 to 0.03 (≈ 0.00738 to 0.0277 µM) | 0.125 to 4 (≈ 0.115 to 3.69 µM) | 0.008 to 1 (≈ 0.00738 to 0.922 µM)
6 | COc1c(N2CCC(N(C)/N=C/c3c4c(O)c5c(O)c(C)c6c(c5c3O)C(=O)[C@@](C)(O/C=C/[C@H](OC)[C@@H](C)[C@@H](OC(C)=O)[C@H](C)[C@H](O)[C@H](C)[C@@H](O)[C@@H](C)/C=C/C=C(/C)C(=O)N4)O6)C2)c(F)cc2c(=O)c(C(=O)O)cn(C3CC3)c12 (mixture of isomers) [Example 22, (R/S)-3-[1-(3-Carboxy-1-cyclopropyl-6-fluoro-8-methoxy-4-oxo-1,4-dihydroquinolin-7-yl)-pyrrolidinyl-3-methylhydrazino-methylenyl]-rifamycin SV] | 0.008 to 0.06 (≈ 0.00728 to 0.0546 µM) | 0.06 to 16 (≈ 0.0546 to 14.6 µM) | 0.008 to 0.1 (≈ 0.00728 to 0.0911 µM) | 0.008 to 0.125 (≈ 0.00728 to 0.114 µM) | 0.008 to 0.03 (≈ 0.00728 to 0.0273 µM) | 0.125 to 4 (≈ 0.114 to 3.64 µM) | 0.008 to 1 (≈ 0.00728 to 0.911 µM)
7 | COc1c(N2CCN(/N=C/c3c4c(O)c5c(O)c(C)c6c(c5c3O)C(=O)[C@@](C)(O/C=C/[C@H](OC)[C@@H](C)[C@@H](OC(C)=O)[C@H](C)[C@H](O)[C@H](C)[C@@H](O)[C@@H](C)/C=C/C=C(/C)C(=O)N4)O6)C(C(=O)O)C2)c(F)cc2c(=O)c(C(=O)O)cn(C3CC3)c12 (mixture of isomers) [Example 23, (R/S)-3-[4-(3-Carboxy-1-cyclopropyl-6-fluoro-8-methoxy-4-oxo-1,4-dihydroquinolin-7-yl)-3-carboxy-piperazin-1-yl-aminomethylenyl]-rifamycin SV] | 0.008 to 0.06 (≈ 0.00709 to 0.0532 µM) | 0.06 to 16 (≈ 0.0532 to 14.2 µM) | 0.008 to 0.1 (≈ 0.00709 to 0.0886 µM) | 0.008 to 0.125 (≈ 0.00709 to 0.111 µM) | 0.008 to 0.03 (≈ 0.00709 to 0.0266 µM) | 0.125 to 4 (≈ 0.111 to 3.55 µM) | 0.008 to 1 (≈ 0.00709 to 0.886 µM)

Source: US7238694B2, “Rifamycin imino derivatives effective against drug-resistant microbes” (Cumbre Pharmaceuticals, Inc., priority 2004, dated 2007)
